Source: US10736971B2, “Peptide-based molecules for modulating car expression or accessibility and uses thereof” (Wright State University, priority 2015, dated 2020)
Residues, ends and D or L forms follow the SMILES beside them.

Experiments:
[1] = system: primary human airway epithelia; test: Epithelial integrity (TER, FITC-Dextran diffusion) and toxicity; assay type: cell-based
Protocol: In panel (A), epithelial cells were seeded on transwells and treated with a single dose of PBS, TAT-scramble or TAT-PDZ3 (TAT-CAR^Ex8 or TAT-ESAM) peptides (50 μM) daily for 16 days. Transepithelial resistance (TER) was measured every other day for 16 days to indicate the amount of epithelial polarization. […] Each condition represents the average of 4 replicates. (B) FITC-Dextran 4 kDa diffusion across treated epithelia in the absence of EDTA. […] (C) Pre-treatment with EDTA to disrupt tight junctions increased Dextran 4 kDa permeability in all conditions. FITC-Dextran 4 kDa was added to the apical membrane compartment and Dextran present in the basolateral media was measured and quantified. […] FITC-Dextran 70 kDa was added to the apical membrane compartment and Dextran in the basolateral media was measured and quantified.
(A) Primary human airway epithelial cells were treated with a single dose of PBS, TAT-scramble (50 μM), or TAT-PDZ1 peptides (50 μM) each day for 14 days. Transepithelial resistance (TER) was taken every other day for 14 days. No change in TER was noticeable upon treatment with TAT-PDZ1 peptides indicating similar epithelium formation. (B) FITC-Dextran 4 kDa diffusion across treated epithelia in the presence or absence of EDTA. There was no difference in Dextran 4 kDa diffusion among treatments indicating intact epithelial tight junctions. Pre-treatment with EDTA increased Dextran 4 kDa permeability similarly in all conditions indicating disruption of epithelial tight junctions. FITC-Dextran 4 kDa was added to the apical membrane and the diffused Dextran was collected from the basolateral media and measured. (C) There was no difference in Dextran 70 kDa diffusion among treatments indicating intact epithelial tight junctions. FITC-Dextran 70 kDa was added to the apical membrane and the diffused Dextran was collected from the basolateral media and measured.

[2] = system: CAR^Ex8; test: Immunocytochemistry of CAR^Ex8 in polarized MDCK cells; assay type: cell-based, canine; settings: 50 μM
Description: CAR^Ex8 is localized mainly at the apical surface of polarized MDCK cells. […] Red (CAR^Ex8), Green (MAGI-1, a junctional protein), Blue (nucleus, DAPI). 60× oil immersion confocal microscopy.
(A) CAR^Ex8 (red) localizes mainly at the apical membrane of MDCK epithelial cells (see xz section). […] 60× oil immersion confocal microscopy.

[3] = molecular target: MAGI-1 PDZ1 domain (Homo sapiens, UniProt Q96QZ7); test: Ligand binding assay with purified MAGI-1 PDZ1 domain
Sequence of MAGI-1 PDZ1 domain (Q96QZ7 472-554 limits assumed): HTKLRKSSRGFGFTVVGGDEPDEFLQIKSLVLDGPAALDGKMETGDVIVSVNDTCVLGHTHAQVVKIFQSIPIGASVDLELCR
Description: Ligand binding assay between TAT-ESAM and purified MAGI-1 PDZ1 or PDZ-3.
MAGI-1 PDZ3 domain was used as a control.

[4] = system: CAR^Ex8; test: Western blot of CAR^Ex8 in well differentiated primary human airway epithelia; assay type: cell-based; settings: versus control
Description: (A) Western blotting from human airway epithelia treated with either TAT-scramble or TAT-PDZ1 peptides (TAT-E6 or TAT-NET1). […] Actin was used to confirm equal protein loading.

[5] = system: AdV; test: qPCR of AdV viral genome in primary human airway epithelia; assay type: cell-based; settings: versus control
[6] = system: CAR^Ex8; test: Western blot / apical surface biotinylation of CAR^Ex8 in MDCK epithelia; assay type: cell-based, canine
Description: (§1) MAGI-1 PDZ binding peptides (BP) can alter CAR^EX8 apical protein levels and AdV infection. […] A) MAGI-1 PDZ1 can rescue CAR^Ex8 expression while PDZ3 decreases CAR^EX8 expression. B) Peptides that bind to PDZ3 will prevent degradation of CAR^Ex8 and rescue CAR^EX8 expression and C) peptides that bind to PDZ1 will prevent rescue of CAR^Ex8 and […] CAR^Ex8 degradation. D) Apical surface-specific biotinylation of polarized MDCK epithelia treated with PDZ1 binding peptide decreases apical levels of CAR^EX8 while PDZ3 binding peptide increase apical CAR^EX8, relative to control. E) Treatment with PDZ3 binding peptide increases while PDZ1 binding peptide decreases AdV5-β-Gal entry as determined by qPCR for viral genomes (Vg). F) AdV5-Cre infection turns cells from red (uninfected) to green (infected) in tDT-mouse airway epithelial cells. Baseline infection in control-peptide treated airway epithelia show an even distribution of uninfected red cells and infected green cells.
(§2) (A) Western blotting of MDCK cells treated with either TAT-CAR^Ex8 or control TAT-CAR^Ex8-AA. […] (C) Polarized MDCK cells were treated with either TAT-CAR^Ex8 or TAT-ESAM and the apical surface subjected to apical surface biotinylation, followed by neutravidin pull down and Western blot of apical surface proteins. […] (E) TAT-cell permeable peptides interrupt MAGI-1-CAR^Ex8 interactions. […]

[7] = system: AdV; test: qPCR of AdV viral genome (transduction/entry) in MDCK epithelia; assay type: cell-based, canine; settings: versus control
Description: as §1, §2

SMILES	Transepithelial resistance (TER) ([1]; 50 μM daily for 16 days, versus control)	FITC-Dextran 70 kDa diffusion across epithelia ([1]; TAT-PDZ3 peptide study)	FITC-Dextran 4 kDa diffusion across epithelia ([1]; absence of EDTA, TAT-PDZ3 peptide study)	Toxicity to epithelia ([1]; primary human airway epithelia)	Effect on junctional staining of MAGI-1 [2]	Immunolocalization of endogenous CAR^Ex8 [2]	Kd [3] [nM]	CAR^Ex8 protein level (Western blotting) [4]	AdV genomic transduction / entry (qPCR of viral genome) [5]	CAR^Ex8 protein level (Western blotting) [6]	AdV genomic transduction / entry (qPCR of viral genome) [7]
CC(C)C[C@H](NC(=O)[C@H](CO)NC(=O)CNC(=O)[C@H](C)NC(=O)[C@H](CCC(N)=O)NC(=O)[C@H](CO)NC(=O)[C@H](CCC(N)=O)NC(=O)[C@H](C)NC(=O)[C@H](CCC(N)=O)NC(=O)[C@@H]1CCCN1C(=O)[C@@H]1CCCN1C(=O)[C@H](CCCNC(=N)N)NC(=O)[C@H](CCCNC(=N)N)NC(=O)[C@H](CCCNC(=N)N)NC(=O)[C@H](CCC(N)=O)NC(=O)[C@H](CCCNC(=N)N)NC(=O)[C@H](CCCNC(=N)N)NC(=O)[C@H](CCCCN)NC(=O)[C@H](CCCCN)NC(=O)[C@H](CCCNC(=N)N)NC(=O)CN)C(=O)N[C@H](C(=O)O)C(C)C [TAT-ESAM] (H-GRKKRRQRRRPPQAQSQAGSLV-OH; N-terminus and C-terminus assumed)	No difference	no difference	no difference	no overt toxicity	–	–	–	–	–	–	–
CC(C)C[C@H](NC(=O)[C@H](CCC(N)=O)NC(=O)[C@@H](NC(=O)[C@H](CCC(=O)O)NC(=O)[C@H](CCCNC(=N)N)NC(=O)[C@H](CCCNC(=N)N)NC(=O)[C@@H](NC(=O)[C@H](CCCNC(=N)N)NC(=O)[C@H](CO)NC(=O)[C@H](CCC(N)=O)NC(=O)[C@@H]1CCCN1C(=O)[C@@H]1CCCN1C(=O)[C@H](CCCNC(=N)N)NC(=O)[C@H](CCCNC(=N)N)NC(=O)[C@H](CCCNC(=N)N)NC(=O)[C@H](CCC(N)=O)NC(=O)[C@H](CCCNC(=N)N)NC(=O)[C@H](CCCNC(=N)N)NC(=O)[C@H](CCCCN)NC(=O)[C@H](CCCCN)NC(=O)[C@H](CCCNC(=N)N)NC(=O)CN)[C@@H](C)O)[C@@H](C)O)C(=O)O [TAT-E6] (H-GRKKRRQRRRPPQSRTRRETQL-OH; N-terminus and C-terminus assumed)	–	–	–	–	minor to no effect	delocalization of CAR^Ex8 to the nuclear compartment	15 ± 4	marked decrease	significant decrease	marked decrease	significant decrease
